Measured values: paper PMC12211128, “Safety, tolerability, pharmacokinetic and pharmacodynamic effects of the muscarinic M1 positive allosteric modulator VU0467319 for Alzheimer’s disease: a single ascending-dose study in healthy participants” (Alzheimer's Research & Therapy, 2025)
Marks after values point to notes of the source that are not given here.

Tested on: healthy participants
Experiment: Visual oddball ERP task
Format: in vivo, human
Conditions: for Mean amplitude over the parietal cortex, Visual Oddball, Standard trials / Mean amplitude over the parietal cortex, Visual Oddball, Target trials: mean (SD)
Experimental: Following the cognitive battery, an electrophysiology recording was set up. Visual and auditory ERPs were recorded using a 128-channel Geodesic sensor net (EGI, Inc., Eugene, OR; [37, 38]). The electrophysiological recording was sampled at 250 Hz with filters set at 0.1–100 Hz. During data collection, all electrodes were referenced to vertex (Cz). The recording session lasted approximately 30 min.
Auditory and visual oddball tasks were performed to assess attention in auditory and visual modalities. In the auditory task, a pair of two pure tones (single formant) at 1000 and 1500 Hz were the stimuli. In the visual task, the stimuli were a pair of letters (X & O). The assignment of stimuli to standard and target conditions (70% & 30% of the trials respectively), was counterbalanced across participants. Each participant was asked to press a different button using their preferred hand upon presentation of the standard and the target stimulus. On average, auditory and visual tasks lasted 6–7 min each.
ERP processing and Analysis: Single-trial ERPs were derived by extracting a 100-ms pre-stimulus baseline and a 900 ms post-stimulus interval. The trials were screened for ocular and motor artifacts using automated procedures with standard threshold settings (NetStation 4.4, EGI, Inc) and verified using manual review. Data for electrodes characterized by consistent artifacts were replaced using the spherical spline interpolation algorithm. If more than 15 electrodes within a trial were noisy, the entire trial was discarded. Remaining artifact-free trials were averaged separately for each condition (standard vs. oddball; novel vs. repeated images), re-referenced to an average reference, and baseline corrected. For individual participant’s data to be included in the analysis, each condition average had to have a minimum of 10 artifact-free trials.
Statistical analysis focused on a priori selected electrode clusters corresponding to frontal, central, and parietal midline locations (Fz, Cz, Pz in 10–20 notation), confirmed using spatial principal components analysis. Mean amplitudes were calculated within 250–400 ms (frontal P3a), 300–500 ms (parietal P300), and 500–800 ms (parietal P600) temporal windows. These a-priori selected windows were confirmed using temporal principal components analysis.
Analyses for the auditory and visual oddball ERPs focused on the parietal (P300) and frontal (P3a) responses to standard and target stimuli. Differences in the amplitude, latency, and scalp topography of the responses were examined. […] For the incidental memory paradigm, differences in the mean amplitude of the parietal P300/P600 responses to repeated vs. novel presentations. The amplitude of the parietal P300/P600 waveform measures stimulus recognition. A larger positive amplitude for repeated compared to novel images indicates spontaneous formation of a memory trace.
Auditory and visual oddball tasks were performed to assess attention in auditory and visual modalities (Comerchero & Polich, 1999; Polich, 2007). In the auditory task, a pair of two pure tones (single formant) at 1000 and 1500 Hz were the stimuli. Tones were equated in duration (300 ms) and rise/decay times. Tones were presented at 75 dB SPL (measured at the ear) through a speaker positioned 1 meter in front of the participant. In the visual task, the stimuli were a pair of letters (X & O). All stimuli were presented in random order for 500 ms in the center of a computer monitor positioned 1 meter in front of the participant. For both auditory and visual tasks, 200 trials were presented with the inter-stimulus interval varying randomly between 1000-1300 ms to prevent habituation to stimulus onset. The assignment of stimuli to standard and target conditions (70% & 30% of the trials respectively), was counterbalanced across participants. […]

[1] = SAD study, 120mg, Post-Drug, n = 5
[2] = SAD study, 120mg, Pre-Drug, n = 5
[3] = SAD study, 240mg, Post-Drug, n = 5
[4] = VU319 120 mg, fasting, post-drug session, n = 9
[5] = VU319 120 mg, fasting, pre-drug session, n = 9
[6] = VU319 120 mg, fed, pre-drug session, n = 9

Cn1cc2c(-c3cc(F)c(CN4Cc5ncccc5C4=O)c(F)c3)cccc2n1 [VU319]
Visual oddball P300 amplitude, targets vs standards (120 mg, fasted condition): no difference | Visual oddball P300 amplitude, targets vs standards, effect size d (120 mg, fed, post-dose session, p = 0.061): 0.73 | Visual oddball P300 amplitude, targets vs standards, effect size d (120 mg, fed, pre-dose session, p = 0.039): 0.82 | Visual oddball parietal amplitude, target vs standard, post- vs pre-dose, effect size d (400 mg, p = 0.05): 1.28 | Visual oddball parietal amplitude, target vs standard, post- vs pre-dose effect (600 mg, t < 1): not found | Mean amplitude over the parietal cortex, Visual Oddball, Standard trials (SAD study, 60 mg, Post-Drug): -0.66 (1.57) µV | Mean amplitude over the parietal cortex, Visual Oddball, Target trials (SAD study, 60 mg, Post-Drug): 1.36 (0.91) µV | Mean amplitude over the parietal cortex, Visual Oddball, Standard trials (SAD study, 60 mg, Pre-Drug): -0.13 (1.23) µV | Mean amplitude over the parietal cortex, Visual Oddball, Target trials (SAD study, 60 mg, Pre-Drug): 1.19 (1.9) µV | Mean amplitude over the parietal cortex, Visual Oddball, Standard trials [1]: 0.01 (1.05)^# µV | Mean amplitude over the parietal cortex, Visual Oddball, Target trials [1]: 1.5 (1.26)^# µV | Mean amplitude over the parietal cortex, Visual Oddball, Standard trials [2]: 0.99 (1.12)^# µV | Mean amplitude over the parietal cortex, Visual Oddball, Target trials [2]: 2.71 (1.58)^# µV | Mean amplitude over the parietal cortex, Visual Oddball, Standard trials [3]: 1.02 (1.44)^# µV | Mean amplitude over the parietal cortex, Visual Oddball, Target trials [3]: 2.2 (2.28)^# µV | Mean amplitude over the parietal cortex, Visual Oddball, Standard trials (SAD study, 240 mg, Pre-Drug): 0.32 (1.04) µV | Mean amplitude over the parietal cortex, Visual Oddball, Target trials (SAD study, 240 mg, Pre-Drug): 1.93 (1.88) µV | Mean amplitude over the parietal cortex, Visual Oddball, Standard trials (SAD study, 400 mg, Post-Drug): 1.48 (0.73) µV | Mean amplitude over the parietal cortex, Visual Oddball, Target trials (SAD study, 400 mg, Post-Drug): 2.7 (1.92) µV | Mean amplitude over the parietal cortex, Visual Oddball, Standard trials (SAD study, 400 mg, Pre-Drug): 1.04 (1.03) µV | Mean amplitude over the parietal cortex, Visual Oddball, Target trials (SAD study, 400 mg, Pre-Drug): 1.75 (1.5) µV | Mean amplitude over the parietal cortex, Visual Oddball, Standard trials (SAD study, 600 mg, Post-Drug): 1.47 (1.1) µV | Mean amplitude over the parietal cortex, Visual Oddball, Target trials (SAD study, 600 mg, Post-Drug): 3.1 (2.23) µV | Mean amplitude over the parietal cortex, Visual Oddball, Standard trials (SAD study, 600 mg, Pre-Drug): 1.46 (2.51) µV | Mean amplitude over the parietal cortex, Visual Oddball, Target trials (SAD study, 600 mg, Pre-Drug): 3.46 (2.31) µV | Mean amplitude over the parietal cortex, Visual Oddball, Standard trials [4]: -0.16 (1.73) µV | Mean amplitude over the parietal cortex, Visual Oddball, Target trials [4]: 0.72 (3.1) µV | Mean amplitude over the parietal cortex, Visual Oddball, Standard trials [5]: -0.16 (1.28) µV | Mean amplitude over the parietal cortex, Visual Oddball, Target trials [5]: 0.71 (1.6) µV | Mean amplitude over the parietal cortex, Visual Oddball, Standard trials (VU319 120 mg, fed, post-drug session, n = 9): 0.25 (0.62) µV | Mean amplitude over the parietal cortex, Visual Oddball, Standard trials [6]: -0.29 (1.17) µV | Mean amplitude over the parietal cortex, Visual Oddball, Target trials [6]: 0.91 (1.49) µV
